System: OVCAR-5 complex spheroids with HUVEC/MSC, viability, % test/control
Experiment: Anticancer human tumor OVCAR-5 cell line growth inhibition [AhR];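 note: spheroids exposed to compounds for 7 days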;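 for viability, T/C: 100% = DMSO vehicle control wells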
Details: for IC50: curve of first compound; for viability, T/C: stronger effect = lower value
Procedure, shortened: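 Complex tumor spheroids co-cultured with HUVEC and human MSC stroma; AhR antagonists tested in combination with standard-of-care and investigational agents. Top concentration at or near clinical Cmax (else 10 microM), half-log dilutions; growth expressed as percent test/control.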

[1] = second compound 0.1 µM, first compound 0.0316 µM
[2] = second compound 0.1 µM, first compound 0.1 µM
[3] = second compound 0.1 µM, first compound 0.316 µM
[4] = second compound 0.1 µM, first compound 1 µM
[5] = second compound 0.1 µM, first compound 3.16 µM
[6] = second compound 0.1 µM, first compound 10 µM
[7] = second compound 0.316 µM, first compound 0.0316 µM
[8] = second compound 0.316 µM, first compound 0.1 µM
[9] = second compound 0.316 µM, first compound 0.316 µM
[10] = second compound 0.316 µM, first compound 1 µM
[11] = second compound 0.316 µM, first compound 3.16 µM
[12] = second compound 0.316 µM, first compound 10 µM
[13] = second compound 1 µM, first compound 0.0316 µM
[14] = second compound 1 µM, first compound 0.1 µM
[15] = second compound 1 µM, first compound 0.316 µM
[16] = second compound 1 µM, first compound 1 µM
[17] = second compound 1 µM, first compound 3.16 µM
[18] = second compound 1 µM, first compound 10 µM
[19] = second compound 3.16 µM, first compound 0.0316 µM
[20] = second compound 3.16 µM, first compound 0.1 µM
[21] = second compound 3.16 µM, first compound 0.316 µM
[22] = second compound 3.16 µM, first compound 1 µM
[23] = second compound 3.16 µM, first compound 3.16 µM
[24] = second compound 3.16 µM, first compound 10 µM
[25] = second compound 10 µM, first compound 0.0316 µM
[26] = second compound 10 µM, first compound 0.1 µM
[27] = second compound 10 µM, first compound 0.316 µM
[28] = second compound 10 µM, first compound 1 µM
[29] = second compound 10 µM, first compound 3.16 µM
[30] = second compound 10 µM, first compound 10 µM

| Compound | IC50 (second compound 0.1 µM) | IC50 (second compound 0.316 µM) | IC50 (second compound 1 µM) | IC50 (second compound 3.16 µM) | IC50 (second compound 10 µM) | viability, T/C [1] | viability, T/C [2] | viability, T/C [3] | viability, T/C [4] | viability, T/C [5] | viability, T/C [6] | viability, T/C [7] | viability, T/C [8] | viability, T/C [9] | viability, T/C [10] | viability, T/C [11] | viability, T/C [12] | viability, T/C [13] | viability, T/C [14] | viability, T/C [15] | further results |
| --- | --- | --- | --- | --- | --- | --- | --- | --- | --- | --- | --- | --- | --- | --- | --- | --- | --- | --- | --- | --- | --- |
| Nc1ccccc1NC(=O)c1ccc(CNC(=O)OCc2cccnc2)cc1 + Cc1ccccc1N=Nc1ccc(NC(=O)c2ccnn2C)c(C)c1 | 0.913 µM | 0.824 µM | 0.856 µM | 0.827 µM | 1.11 µM | 95.1% | 89.9% | 74.8% | 48.6% | 20.3% | 7.82% | 98.8% | 93.6% | 76.6% | 44.4% | 19.3% | 8.39% | 102% | 94.4% | 83.9% | viability, T/C [16]: 43.8%; viability, T/C [17]: 18.7%; viability, T/C [18]: 9.13%; viability, T/C [19]: 103%; viability, T/C [20]: 99.9%; viability, T/C [21]: 79.1%; viability, T/C [22]: 44.1%; viability, T/C [23]: 19%; viability, T/C [24]: 9.43%; viability, T/C [25]: 91.1%; viability, T/C [26]: 96.1%; viability, T/C [27]: 75.4%; viability, T/C [28]: 56%; viability, T/C [29]: 19.9%; viability, T/C [30]: 9.42% |
| O=C(C=Cc1cccc(S(=O)(=O)Nc2ccccc2)c1)NO + Cc1ccccc1N=Nc1ccc(NC(=O)c2ccnn2C)c(C)c1 | 1.1 µM | 1.08 µM | 1.18 µM | 1.03 µM | 1.06 µM | 100% | 89.7% | 76.1% | 53% | 24.8% | 5.54% | 101% | 97.2% | 77.2% | 54.2% | 21.3% | 5.42% | 103% | 97.4% | 84.8% | viability, T/C [16]: 54.1%; viability, T/C [17]: 22.6%; viability, T/C [18]: 5.11%; viability, T/C [19]: 103%; viability, T/C [20]: 99.3%; viability, T/C [21]: 81%; viability, T/C [22]: 50.2%; viability, T/C [23]: 21.6%; viability, T/C [24]: 5.09%; viability, T/C [25]: 93.4%; viability, T/C [26]: 96.2%; viability, T/C [27]: 76.2%; viability, T/C [28]: 52%; viability, T/C [29]: 22.3%; viability, T/C [30]: 5.86% |
| O=C(c1cc(Cc2n[nH]c(=O)c3ccccc23)ccc1F)N1CCN(C(=O)C2CC2)CC1 + Cc1ccccc1N=Nc1ccc(NC(=O)c2ccnn2C)c(C)c1 | > 10 µM | > 10 µM | > 10 µM | > 10 µM | > 10 µM | 103% | 105% | 102% | 99.8% | 92.5% | 85% | 107% | 109% | 105% | 104% | 98.3% | 90.6% | 111% | 114% | 115% | viability, T/C [16]: 109%; viability, T/C [17]: 101%; viability, T/C [18]: 94.2%; viability, T/C [19]: 111%; viability, T/C [20]: 115%; viability, T/C [21]: 114%; viability, T/C [22]: 106%; viability, T/C [23]: 107%; viability, T/C [24]: 99.4%; viability, T/C [25]: 99.3%; viability, T/C [26]: 110%; viability, T/C [27]: 103%; viability, T/C [28]: 106%; viability, T/C [29]: 96.7%; viability, T/C [30]: 89.1% |
